Laboratory results reported in the NIST ThermoML archive (doi:10.1016/j.tca.2011.10.009).

Experiments:
[1] = Liquid; for mass density: Vibrating tube method
[2] = refractive index (Na D-line) (dimensionless); mn = molality of the nth substance listed, in mol/kg; conditions: 298.15 K, 101 kPa, Liquid, Standard Abbe refractometry
[3] = mn = molality of the nth substance listed, in mol/kg; conditions: 101 kPa, Liquid; for viscosity: Capillary tube (Ostwald / Ubbelohde) method; for mass density: Vibrating tube method

CCCCCCn1cc[n+](C)c1.[Br-] [3-hexyl-1-methyl-1H-imidazolium bromide]
Conditions	mass density [kg/m3]
[1], 298.15 K, 101.33 kPa	1222.1

CCCCCCn1cc[n+](C)c1.[Br-] [3-hexyl-1-methyl-1H-imidazolium bromide] + CN(C)C=O
[2]
Conditions	refractive index
m1 = 0.0233	1.4303
m1 = 0.0435	1.4306
m1 = 0.0658	1.4311
m1 = 0.0824	1.4316
m1 = 0.1049	1.432
m1 = 0.1228	1.4325
m1 = 0.1428	1.433
m1 = 0.1583	1.4336
m1 = 0.1869	1.4344
m1 = 0.2051	1.4347

[3]
Conditions	mass density, 298.15 K [kg/m3]	mass density, 303.15 K [kg/m3]	mass density, 308.15 K [kg/m3]	mass density, 313.15 K [kg/m3]	viscosity, 298.15 K [mPa·s]
m1 = 2.17e-05	–	–	–	–	0.897
m1 = 4.17e-05	–	–	–	–	0.913
m1 = 6.26e-05	–	–	–	–	0.929
m1 = 7.78e-05	–	–	–	–	0.938
m1 = 9.98e-05	–	–	–	–	0.952
m1 = 0.0001171	–	–	–	–	0.969
m1 = 0.0001363	–	–	–	–	0.985
m1 = 0.0001507	–	–	–	–	0.997
m1 = 0.0001787	–	–	–	–	1.014
m1 = 0.0001961	–	–	–	–	1.022
m1 = 0.0233	945.6	942.35	937.3	932.21	–
m1 = 0.0435	946.89	943.65	938.59	933.56	–
m1 = 0.0658	948.29	945.07	939.99	935.02	–
m1 = 0.0824	949.31	946.1	941.01	936.08	–
m1 = 0.1049	950.67	947.48	942.38	937.52	–
m1 = 0.1228	951.73	948.58	943.44	938.65	–
m1 = 0.1428	952.91	949.77	944.62	939.88	–
m1 = 0.1583	953.83	950.67	945.53	940.81	–
m1 = 0.1869	955.45	952.33	947.16	942.51	–
m1 = 0.2051	956.47	953.36	948.17	943.57	–

C(=NCCN=Cc1ccccn1)c1ccccn1 [N,N'-bis(2-pyridinylmethylene)-1,2-ethanediamine] + CN(C)C=O
[3]
Conditions	mass density, 298.15 K [kg/m3]	mass density, 303.15 K [kg/m3]	mass density, 308.15 K [kg/m3]	mass density, 313.15 K [kg/m3]	viscosity, 298.15 K [mPa·s]
m1 = 0.0402	945.46	941.5	936.79	931.89	0.878
m1 = 0.0764	946.76	942.72	937.92	933.39	0.893
m1 = 0.1208	948.07	943.95	939.19	934.92	0.909
m1 = 0.1644	949.29	944.72	940.14	936.16	0.926

CN(C)C=O [dimethylformamide]
Conditions	viscosity [mPa·s]
[1], 298.15 K, 101 kPa, Capillary tube (Ostwald / Ubbelohde) method	0.861

[1], 101 kPa
Conditions	mass density [kg/m3]
298.15 K	944.09
303.15 K	940.82
308.15 K	935.79
313.15 K	930.63
